Values quoted from earlier work, collected in US20080176908A1, “Method of using squalene monooxygenase inhibitors to treat acne” (priority 2007, published 2008).

Conditions: compared with 2.5% hydrocortisone; test details not given

| Compound | anti-inflammatory ability |
| --- | --- |
| Cc1cc(C2CCCCC2)n(O)c(=O)c1 [Ciclopirox, 6-cylcohexyl-1-hydroxy-4-methyl-pyridin-2-one] | greater anti-inflammatory ability than 2.5% hydrocortisone |
| CN(C/C=C/c1ccccc1)Cc1cccc2ccccc12 [naftifine, (E)-N-cinnamyl-N-methyl-1-naphthalenemethylamine] | greater anti-inflammatory ability than 2.5% hydrocortisone |
| CN(CC=CC#CC(C)(C)C)Cc1cccc2ccccc12 [terbinafine, N,6,6-trimethyl-N-(naphthalene-1-ylmethyl)hept-2-en-4-yn-1-amine] | greater anti-inflammatory ability than 2.5% hydrocortisone |
